Measured values: patent publication US8071797B2 (priority 2008, dated 2011)

Assays:
HCV = settings: monotherapy; cited from earlier work
[1] = target: T1, HCV polymerase (NS5B570n-Con1) (Hepatitis C virus genotype 1b, UniProt Q9WMX2); assay: HCV NS5B RNA polymerase activity assay; format: biochemical, HCV Con1 strain
T1 construct: contains a 21 amino acid deletion at the C-terminus relative to the full-length HCV polymerase; 6-histidine (N); made in house; host or cells: E. coli BL21 (DE) pLysS
Summary of the method: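 His6-tagged NS5B Con1 (genotype 1b, 21-aa C-terminal deletion; 20 nM) copied 20 nM cIRES RNA template with [3H]UTP plus 1 μM ATP, CTP and GTP in pH 8.0 Tris buffer with 4 mM MgCl2 and DTT, 2 h at 30 °C. TCA-precipitated RNA counted by scintillation. IC50 from four-parameter fit versus no-compound control, no-enzyme background subtracted.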

in vitro = settings: human
[2] = tested on: HCV replicon cells (2209-23), genotype 1b replicon in Huh7 cells; assay: HCV replicon assay (Renilla luciferase reporter); format: cell-based, HCV genotype 1b; settings: Hepatitis C virus, Huh-7, 72 h; cell line 2209-23, three days incubation
[3] = IC50 NS5B polymerase assay, Table I
[4] = Polymerase Assay IC50, Table II

Row | Compound | patients in whom serum amino transferase levels are reduced to normal (HCV) [%] | melting point [°C] | IC50 [1, 3] [nM] | CC50 (in vitro) [nM] | IC50 [2] [nM] | IC50 [1, 4] [nM]
1 | NC(=O)c1ncn([C@@H]2O[C@H](CO)[C@@H](O)[C@H]2O)n1 [ribavirin, 1-((2R,3R,4S,5R)-3,4-Dihydroxy-5-hydroxymethyl-tetrahydro-furan-2-yl)-1H-[1,2,4]triazole-3-carboxylic acid amide] | 40 |  |  |  |  | 
2 | CNC(=O)c1c(-c2ccc(Oc3ccc(F)cc3)cc2)oc2cc(N(CCO)S(C)(=O)=O)c(C3CC3)cc12 [Compound I-32, 5-Cyclopropyl-2-[4-(4-fluoro-phenoxy)-phenyl]-6-[(2-hydroxy-ethyl)-methanesulfonyl-amino]-benzofuran-3-carboxylic acid methylamide] |  | 110 to 115 | 60 |  |  | 
3 | CNC(=O)c1c(-c2ccc(Oc3ccccc3)cc2)oc2cc(N3CCOCC3)c(C3CC3)cc12 [Compound I-77] |  | 223.4 to 223.9 | 672 |  |  | 
4 | CNC(=O)c1c(-c2ccc(Oc3ccccc3)cc2)oc2cc(N3CCCCS3(=O)=O)c(C3CC3)cc12 [Compound I-93] |  | 197 to 199 | 71 |  |  | 
5 | CNC(=O)c1c(-c2ccc(Oc3ccccc3)cc2)oc2cc(N3CCNS3(=O)=O)c(C3CC3)cc12 [Compound I-102, 5-Cyclopropyl-6-(1,1-dioxo-1λ^6-[1,2,5]thiadiazolidin-2-yl)-2-(4-phenoxy-phenyl)-benzofuran-3-carboxylic acid methylamide] |  | 183.4 to 184.5 | 20 |  |  | 
6 | CNC(=O)c1c(-c2ccc(Oc3ccccc3)cc2)oc2cc(N3CCN(C)S3(=O)=O)c(C3CC3)cc12 [Compound I-105, 5-Cyclopropyl-6-(5-methyl-1,1-dioxo-1λ^6-[1,2,5]thiadiazolidin-2-yl)-2-(4-phenoxy-phenyl)-benzofuran-3-carboxylic acid methylamide] |  | 105 to 107 | 41 |  |  | 
7 | CNC(=O)c1c(-c2ccc(Oc3ccc(F)cc3)cc2)oc2cc(N(CCCN)S(C)(=O)=O)c(C3CC3)cc12 [Compound I-69] |  |  | 18 | 4600 | 10 | 18
8 | CNC(=O)c1c(-c2ccc(Oc3ccc(F)cc3)cc2)oc2cc(N(CCCNS(C)(=O)=O)S(C)(=O)=O)c(C3CC3)cc12 [Compound I-116] |  |  |  |  | 4 | 
9 | CNC(=O)c1c(-c2ccc(Nc3ccccc3)cc2)oc2cc(N(CCO)S(C)(=O)=O)c(OC)cc12 [Compound I-1, 6-[(2-hydroxy-ethyl)-methanesulfonyl-amino]-5-methoxy-2-(4-phenylamino-phenyl)-benzofuran-3-carboxylic acid methylamide] |  | 144.6 to 146.9 | 43 | 30600 | 43 | 5
10 | CNC(=O)c1c(-c2ccc(Nc3ccc(C(C)C)cc3)cc2)oc2cc(N(CCO)S(C)(=O)=O)c(OC)cc12 [Compound I-6] |  | 223.9 to 234.5 | 544 |  |  | 
11 | CNC(=O)c1c(-c2ccc(Nc3ccccn3)cc2)oc2cc(N(CCO)S(C)(=O)=O)c(OC)cc12 [Compound I-123] |  | 241 to 243 | 156 |  |  | 
12 | CNC(=O)c1c(-c2ccc(Oc3ccc(F)cc3)cc2)oc2cc(N(CC(N)CO)S(C)(=O)=O)c(C3CC3)cc12.Cl (centres unmarked) [Compound I-107] |  | 178 to 180 | 19 |  |  | 
13 | CNC(=O)c1c(-c2ccc(Oc3ccc(F)cc3)cc2)oc2cc(N(CCO)S(C)(=O)=O)ccc12 [Compound I-64, 2-[4-(4-Fluoro-phenoxy)-phenyl]-6-[(2-hydroxy-ethyl)-methanesulfonyl-amino]-benzofuran-3-carboxylic acid methylamide] |  | 214.6 to 215.7 | 415 |  |  | 
